The results in this text go back to US12599608B2, “Methods for treating cardiac valve disease” (The Regents of the University of California, priority 2018, dated 2026).

“Also recorded” adds a separate entry of the source.

Format in all cases: cell-based, human
Assay [1] relates to N1^+/− ECs. As to the kind of experiment: Validation trials of screen candidates by targeted RNA-seq with the trained KNN algorithm. Particulars: duplicate or triplicate; one or more replicates classified as WT. How it is done: (§1) Starting on day 15 of differentiation, WT ECs were exposed to 10 μM DMSO (dimethyl sulfoxide) (n=80) while isogenic N1^+/− ECs were exposed to either 10 μM DMSO (n=80) or one of the small molecules from the LOPAC (1280 molecules) (Sigma LO1280) or Sheng Ding (315 molecules) chemical libraries. DMSO or small molecules were renewed with EC media (ScienCell #1001) changes on alternating days until the cells were ultimately collected for analysis on day 21. ECs were imaged using the IN Cell Analyzer on day 21 to evaluate morphology and cell death; wells with extensive cell death were eliminated from final analyses. For validation experiments, promising small molecules identified from the initial screen were applied to N1^+/− ECs in duplicate or triplicate along with controls of DMSO-exposed WT and N1^+/− ECs (n=4 each) using the same process as the initial screen described above.
(§2) ECs were lysed and RNA was isolated using the Qiagen RNeasy 96-well purification kit. RNA was diluted so that it was between the 10 pg-1 ng range accepted by the Cellular Research Precise targeted RNA-seq (RNA sequencing) system. Targeted RNA-seq libraries were prepared as per the Cellular Research Precise protocol (Rev 03092015), which includes both molecule and sample barcoding. The selected 119 target genes (see Table 1) included 3 low-expressing housekeeping genes for normalization (CHMP2A, C1orf43, REEP5) and either predicted central regulatory nodes or peripheral genes positioned within varied regions of the N1 network to permit identification of small molecules that affected central nodes as well as those that may have a synergistic effect in combination due to regulating different aspects of the network. Briefly, RNA was added to the Precise Encoding Plate containing indexed dT primer, dNTPs, and Spike-in mRNA controls and incubated at 65° C. for 3 minutes followed by cooling on ice. A master-mix of RT enzyme, RNase inhibitor, and buffer was then added to the samples, and they were incubated at 42° C. for 30 minutes followed by 80° C. for 5 minutes. Each plate of samples was combined into a single 2 ml tube and purified with AMPureXP beads. N1 PCR master-mix was added and samples were incubated for 94° C. for 2 minutes, followed by 15 cycles of 94° C. for 30 seconds, 55° C. for 3 minutes, and 68° C. for 1 minute, followed by 68° C. for 7 minutes. Samples were purified with AMPureXP beads and N2 PCR master-mix was added. Samples were incubated with the same thermal cycler program as above for 12 cycles. These final libraries were then purified with AMPureXP beads and analyzed for quality and concentration by Agilent Bioanalyzer and Illumina Library Quantification Kit (KAPA Biosystems), respectively. Libraries were normalized to equivalent concentration and pooled for paired-end 100 bp sequencing on an Illumina HiSeq 2500 instrument.
Sequencing data was analyzed using Cellular Research Precise Analysis Pipeline on the SevenBridges platform, which included analyzing sequencing quality with FASTQC, trimming adapters and filtering reads, demultiplexing based on sample barcodes, aligning reads with Bowtie 2, and determining the number of unique molecular indices per gene. Network inference was based on mutual information of gene expression from all DMSO- and small molecule-exposed samples as described in Margolin et al., BMC Bioinformatics. 2006; 7 Suppl 1:S7. Network diagram was generated using NetworkX (Hagberg et al., Exploring Network Structure, Dynamics, and Function using NetworkX. SciPy. 2008) based on network connections inferred from the small molecule screen data as described above with colors based on whole transcriptome RNA-seq gene expression of isogenic N1^+/− compared to WT ECs.
Promising small molecules were identified using either K-nearest neighbor (KNN) or hierarchical clustering algorithms. […]

Assay [2] has as its system N1^+/− iPSC-derived ECs. As to the kind of experiment: Network-based small molecule screen by targeted RNA-seq of 119 genes (KNN and hierarchical clustering). Particulars: initial screen, complete agglomeration method.
Excerpt: TALEN-engineered isogenic human iPSCs that were either WT (wild-type) or N1^+/− were derived and characterized as detailed in Theodoris et al., Cell. 2015; 160:1072-1086. Isogenic iPSCs (induced pluripotent stem cells) were differentiated into ECs as previously described (Theodoris et al., 2015; White et al., Stem Cells. 2012; 31:92-103). On day 13 of the differentiation process, ECs were greater than 90% double-positive for CD31 (BD #558068) and CD144 (#FAB9381P) by FACS (fluorescence-activated cell sorting) analysis (FIGS. 9G-H). Small molecule experiments (described below) were conducted at day 15 of differentiation.
as §1, §2
Sequencing data was analyzed using Cellular Research Precise Analysis Pipeline on the SevenBridges platform, which included analyzing sequencing quality with FASTQC, trimming adapters and filtering reads, demultiplexing based on sample barcodes, aligning reads with Bowtie 2, and determining the number of unique molecular indices per gene. Network inference was based on mutual information of gene expression from all DMSO- and small molecule-exposed samples as described in Margolin et al., BMC Bioinformatics. […]

In assay [3] the test system is N1^+/− ECs. As to the kind of experiment: Whole transcriptome RNA-seq of N1^+/− ECs treated with network-correcting molecules. The conditions noted are these: for repressive effect on cadherin-11 mRNA expression: FIG. 9A; for restoration of the N1-dependent network as a whole: FIGS. 2E, 3A. As to the method:
ECs were lysed and RNA was isolated using the Qiagen RNeasy Micro purification kit. RNA-seq libraries were constructed using the Clontech SMRTer Stranded RNA-seq Library Prep Kit for Illumina per kit protocol. Libraries were analyzed by Agilent Bioanalyzer, normalized to equivalent concentration, pooled, gel purified, and sequenced 75 bp paired-end on an Illumina NextSeq instrument with 10% PhiX.
Sequencing quality was assessed with FASTQC (located on the web by placing “www.” in front of “bioinformatics.babraham.ac.uk/projects/fastqc/”). Reads were aligned to the hg19 (Homo sapiens assembly February 2009) transcriptome and genome using the Spliced Transcripts Alignment to a Reference (STAR) Aligner (Dobin et al., Bioinformatics. 2012; 29:15-21) and differential expression was analyzed using Cuffdiff (Trapnell et al., Nat Biotechnol. 2012; 31:46-53). HOPACH was used for clustering with the correlation metric (van der Laan and Pollard; located on the web by placing “www.” in front of “bioconductor.org/packages/devel/bioc/manuals/hopach/man/hopach.pdf”. GO analyses were completed using GO-Elite and ToppGene (Chen et al., Nucleic Acids Research. 2009; 37:W305-W311; Zambon et al., Bioinformatics. 2012; 28:2209-2210). Network diagrams were generated using NetworkX (Hagberg et al., SciPy. 2008) based on network connections inferred from mRNA-seq gene expression of isogenic N1^+/− compared to WT ECs with colors based on whole transcriptome RNA-seq gene expression of DMSO- vs small molecule-treated WT and N1^+/− ECs.

In the case of `CCN1/C(=C/C(C)=O)Sc2ccc(OC)cc21` [TG003, (Z)-1-(3-ethyl-5-methoxy-2,3-dihydrobenzothiazol-2-ylidene)propan-2-one], the “KNN classification of treated N1^+/− ECs in validation trials” value in assay [1] is listed as “classified as WT”. The “hierarchical clustering of transcriptional profile of treated N1-haploinsufficient ECs with WT ECs” value in assay [2] was “cluster with WT ECs”. In addition, the “repression of genes aberrantly activated in N1-haploinsufficient ECs” value in assay [3] (FIG. 2A) is “broadly effective at repressing these genes, albeit to a lesser degree”. Further, in assay [3], the “repressive effect on cadherin-11 mRNA expression” value is “strongest repressive effect” and the “restoration of the N1-dependent network as a whole” value was “strong restorative effect”.
`COc1cc(/C=C(\C#N)C(=O)Nc2nnc(C(F)(F)F)s2)ccc1OCc1ccc(C(F)(F)F)cc1C(F)(F)F` [XCT790, 2E-3-(4-{[2,4-bis(trifluoromethyl)benzyl]oxy}-3-methoxyphenyl)-2-cyano-N-[5-(trifluoromethyl)-1,3,4-thiadiazol-2-yl]acrylamide]: in assay [1], the “KNN classification of treated N1^+/− ECs in validation trials” value is “classified as WT”. In assay [2], the “hierarchical clustering of transcriptional profile of treated N1-haploinsufficient ECs with WT ECs” value is listed as “cluster with WT ECs”. In assay [3] (FIG. 2A), the “repression of genes aberrantly activated in N1-haploinsufficient ECs” value is “most effective at repressing genes aberrantly activated in N1-haploinsufficient ECs”; the “restoration of transcription of genes repressed in N1-haploinsufficient ECs” value was “effectively restored the transcription of mesoderm and cell cycle checkpoint genes”. Further, the “correlation of gene expression of treated N1^+/− ECs with WT ECs” value in assay [3] (FIG. 2B) is reported as “correlated most strongly; also recorded: correlate most strongly with WT ECs”. Further, the “restorative effect on regulatory nodes SOX7 and TCF4” value in assay [3] (FIG. 2D) is listed as “strongest restorative effect”. For the same compound, in assay [3], the “repressive effect on cadherin-11 mRNA expression” value is “strongest repressive effect”; the “restoration of the N1-dependent network as a whole” value was “most effective at restoring both aberrantly activated and repressed genes; also recorded: corrected the greatest number of genes to the greatest degree; also recorded: strongest restorative effect on central regions of the network”.
